One experiment deals with PI3K alpha (Homo sapiens (Human), UniProt P42336). Description: Enzymatic PI3K alpha isoform inhibition (lipid kinase, Kinase-Glo luminescence). The format is biochemical. The settings on record: enzymatic assay. (In general: In Kinase-Glo more light means more ATP remaining.)
A further experiment deals with PI3K delta (Homo sapiens (Human), UniProt O00329). As to the kind of experiment: Enzymatic PI3K delta isoform inhibition (lipid kinase, Kinase-Glo luminescence). The format is biochemical. The note with it: enzymatic assay.
Sequence of PI3K delta (O00329 other isoform, or with tags, fused parts or gaps linker GGGGGG): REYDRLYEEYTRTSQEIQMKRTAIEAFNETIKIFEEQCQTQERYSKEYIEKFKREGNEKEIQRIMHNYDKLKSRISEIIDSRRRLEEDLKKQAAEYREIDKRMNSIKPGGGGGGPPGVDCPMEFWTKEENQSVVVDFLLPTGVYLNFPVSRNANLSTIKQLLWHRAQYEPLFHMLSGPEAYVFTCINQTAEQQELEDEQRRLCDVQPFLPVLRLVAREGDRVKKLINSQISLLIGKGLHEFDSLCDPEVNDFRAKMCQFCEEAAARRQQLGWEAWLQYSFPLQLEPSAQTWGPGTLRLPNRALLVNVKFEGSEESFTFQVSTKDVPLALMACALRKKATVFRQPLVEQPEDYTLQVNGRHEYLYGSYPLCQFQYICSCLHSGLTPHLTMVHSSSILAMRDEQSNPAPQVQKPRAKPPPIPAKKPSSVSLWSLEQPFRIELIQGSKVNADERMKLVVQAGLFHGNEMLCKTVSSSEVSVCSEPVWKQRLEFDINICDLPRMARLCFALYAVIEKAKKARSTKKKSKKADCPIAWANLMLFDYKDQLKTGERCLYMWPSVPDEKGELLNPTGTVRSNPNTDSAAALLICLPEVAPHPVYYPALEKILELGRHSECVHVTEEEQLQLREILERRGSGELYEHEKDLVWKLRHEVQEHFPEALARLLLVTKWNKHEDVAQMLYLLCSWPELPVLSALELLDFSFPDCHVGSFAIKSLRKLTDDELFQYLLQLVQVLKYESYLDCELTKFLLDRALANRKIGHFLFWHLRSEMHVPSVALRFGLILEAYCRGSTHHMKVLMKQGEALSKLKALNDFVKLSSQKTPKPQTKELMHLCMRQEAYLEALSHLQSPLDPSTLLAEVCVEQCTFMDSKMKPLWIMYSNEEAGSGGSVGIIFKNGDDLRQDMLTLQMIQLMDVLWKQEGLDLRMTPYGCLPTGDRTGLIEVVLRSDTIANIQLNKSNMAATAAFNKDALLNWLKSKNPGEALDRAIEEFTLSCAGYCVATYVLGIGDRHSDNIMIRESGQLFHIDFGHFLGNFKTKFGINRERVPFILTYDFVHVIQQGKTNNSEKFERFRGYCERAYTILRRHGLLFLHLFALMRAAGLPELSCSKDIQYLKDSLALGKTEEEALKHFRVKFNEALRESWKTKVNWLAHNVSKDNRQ

Sequence of PI3K alpha (P42336 other isoform, or with tags, fused parts or gaps): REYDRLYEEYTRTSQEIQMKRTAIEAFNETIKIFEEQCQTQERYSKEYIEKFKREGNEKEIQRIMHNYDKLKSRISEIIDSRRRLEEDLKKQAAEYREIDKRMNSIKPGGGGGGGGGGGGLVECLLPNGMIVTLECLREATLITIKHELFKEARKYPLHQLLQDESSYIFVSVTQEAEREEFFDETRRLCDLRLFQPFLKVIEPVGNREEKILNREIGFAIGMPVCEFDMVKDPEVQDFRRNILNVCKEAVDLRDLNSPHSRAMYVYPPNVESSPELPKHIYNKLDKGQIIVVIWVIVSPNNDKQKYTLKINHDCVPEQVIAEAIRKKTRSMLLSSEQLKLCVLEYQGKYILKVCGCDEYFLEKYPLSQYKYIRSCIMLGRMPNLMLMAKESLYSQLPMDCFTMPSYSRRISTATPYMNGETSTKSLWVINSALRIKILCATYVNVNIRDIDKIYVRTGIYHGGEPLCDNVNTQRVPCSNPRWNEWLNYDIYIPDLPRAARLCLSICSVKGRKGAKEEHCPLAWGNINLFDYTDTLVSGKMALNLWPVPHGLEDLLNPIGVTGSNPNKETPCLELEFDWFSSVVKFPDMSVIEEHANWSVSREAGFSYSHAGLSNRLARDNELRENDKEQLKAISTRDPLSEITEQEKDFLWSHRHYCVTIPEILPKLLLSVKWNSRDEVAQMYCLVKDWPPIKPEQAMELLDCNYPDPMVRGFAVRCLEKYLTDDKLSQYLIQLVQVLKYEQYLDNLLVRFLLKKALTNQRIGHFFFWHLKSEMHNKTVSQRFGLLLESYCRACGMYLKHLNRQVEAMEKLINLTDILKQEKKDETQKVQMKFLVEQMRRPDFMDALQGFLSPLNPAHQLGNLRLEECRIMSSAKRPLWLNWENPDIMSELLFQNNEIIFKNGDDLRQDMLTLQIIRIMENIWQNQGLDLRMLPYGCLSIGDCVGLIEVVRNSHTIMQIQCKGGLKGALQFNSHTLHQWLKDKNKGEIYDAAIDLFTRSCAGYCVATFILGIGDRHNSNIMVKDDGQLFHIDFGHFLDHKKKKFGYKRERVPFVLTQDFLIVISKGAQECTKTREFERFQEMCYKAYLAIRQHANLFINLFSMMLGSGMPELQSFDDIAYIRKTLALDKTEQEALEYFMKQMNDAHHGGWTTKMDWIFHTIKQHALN

By IC50 is commonly meant the concentration needed to halve the response being measured. In the case of `COc1ncc(N2CCc3ncnc(O[C@H]4CCN(C(=O)c5ocnc5C)C4)c3C2)cc1C` [Example 18, {(S)-3-[6-(6-Methoxy-5-methyl-pyridin-3-yl)-5,6,7,8-tetrahydro-pyrido[4,3-d]pyrimidin-4-yloxy]-pyrrolidin-1-yl}-(4-methyl-oxazol-5-yl)-methanone], the IC50 is 871 nM at PI3K alpha and 33 nM against PI3K delta.
In the case of `COc1ncc(N2CCc3ncnc(O[C@H]4CCN(C(=O)c5ccc(=O)[nH]c5)C4)c3C2)cc1C` [Example 19, 5-{(S)-3-[6-(6-Methoxy-5-methyl-pyridin-3-yl)-5,6,7,8-tetrahydro-pyrido[4,3-d]pyrimidin-4-yloxy]-pyrrolidine-1-carbonyl}-1H-pyridin-2-one], the concentration for half-maximal inhibition (IC50) turned out to be 3060 nM at PI3K alpha and 33 nM against PI3K delta.
On to `COc1cc(N2CCc3ncnc(O[C@H]4CCN(C(=O)c5cocn5)C4)c3C2)cnc1OC` [Example 21, {(S)-3-[6-(5,6-Dimethoxy-pyridin-3-yl)-5,6,7,8-tetrahydro-pyrido[4,3-d]pyrimidin-4-yloxy]-pyrrolidin-1-yl}-oxazol-4-yl-methanone], for which the half-maximal inhibitory concentration (IC50) came to 320 nM at PI3K alpha and 8 nM against PI3K delta.
For `COc1cc(N2CCc3ncnc(O[C@H]4CCN(C(=O)c5cnco5)C4)c3C2)cnc1OC` [Example 22, {(S)-3-[6-(5,6-Dimethoxy-pyridin-3-yl)-5,6,7,8-tetrahydro-pyrido[4,3-d]pyrimidin-4-yloxy]-pyrrolidin-1-yl}-oxazol-5-yl-methanone], in that order: 580 nM and 8 nM.
As to `COc1cc(N2CCc3ncnc(O[C@H]4CCN(C(=O)c5coc(C)n5)C4)c3C2)cnc1OC` [Example 23, {(S)-3-[6-(5,6-Dimethoxy-pyridin-3-yl)-5,6,7,8-tetrahydro-pyrido[4,3-d]pyrimidin-4-yloxy]-pyrrolidin-1-yl}-(2-methyl-oxazol-4-yl)-methanone], the IC50 on PI3K alpha was 129 nM; against PI3K delta, 10 nM.
As for `COc1cc(N2CCc3ncnc(O[C@H]4CCN(C(=O)C5CCOC(C)(C)C5)C4)c3C2)cnc1OC` (stereo partly drawn) [Example 24, {(S)-3-[6-(5,6-Dimethoxy-pyridin-3-yl)-5,6,7,8-tetrahydro-pyrido[4,3-d]pyrimidin-4-yloxy]-pyrrolidin-1-yl}-(2,2-dimethyl-tetrahydro-pyran-4-yl)-methanone], the IC50 on PI3K alpha stood at 374 nM; against PI3K delta, 9 nM.
Regarding `COc1cc(N2CCc3ncnc(O[C@H]4CCN(C(=O)c5oc(C)nc5C)C4)c3C2)cnc1OC` [Example 25, {(S)-3-[6-(5,6-Dimethoxy-pyridin-3-yl)-5,6,7,8-tetrahydro-pyrido[4,3-d]pyrimidin-4-yloxy]-pyrrolidin-1-yl}-(2,4-dimethyl-oxazol-5-yl)-methanone], the IC50 at PI3K alpha came to 820 nM; against PI3K delta it was 26 nM.
In the case of `COc1cc(N2CCc3ncnc(O[C@H]4CCN(C(=O)C5CCC(F)(F)CC5)C4)c3C2)cnc1OC` [Example 26, (4,4-Difluoro-cyclohexyl)-{(S)-3-[6-(5,6-dimethoxy-pyridin-3-yl)-5,6,7,8-tetrahydro-pyrido[4,3-d]pyrimidin-4-yloxy]-pyrrolidin-1-yl}-methanone], the IC50 on PI3K alpha was 368 nM; on PI3K delta it was 21 nM.
In the case of `COc1ncc(N2CCc3ncnc(O[C@H]4CCN(C(=O)CC5CCOCC5)C4)c3C2)cc1C#N` [Example 27, 2-Methoxy-5-{4-[(S)-1-(2-tetrahydro-pyran-4-yl-acetyl)-pyrrolidin-3-yloxy]-7,8-dihydro-5H-pyrido[4,3-d]pyrimidin-6-yl}-nicotinonitrile], the 50% inhibitory concentration (IC50) against PI3K alpha amounted to 3410 nM; against PI3K delta, 40 nM.
On the same counts, the results for `COc1ncc(N2CCc3ncnc(O[C@H]4CCN(C(=O)C5CCOC(C)(C)C5)C4)c3C2)cc1C#N` (stereo partly drawn) [Example 29, 5-{4-[(S)-1-(2,2-Dimethyl-tetrahydro-pyran-4-carbonyl)-pyrrolidin-3-yloxy]-7,8-dihydro-5H-pyrido[4,3-d]pyrimidin-6-yl}-2-methoxy-nicotinonitrile] are 2580 nM and 11 nM.
Turning to `COc1ncc(N2CCc3ncnc(O[C@H]4CCN(C(=O)c5ncoc5C)C4)c3C2)cc1C` [Example 30, {(S)-3-[6-(6-Methoxy-5-methyl-pyridin-3-yl)-5,6,7,8-tetrahydro-pyrido[4,3-d]pyrimidin-4-yloxy]-pyrrolidin-1-yl}-(5-methyl-oxazol-4-yl)-methanone], the IC50 against PI3K alpha came out at 2830 nM; on PI3K delta it was 40 nM.
On to `COc1ncc(N2CCc3ncnc(O[C@H]4CCN(C(=O)c5cnoc5C)C4)c3C2)cc1C` [Example 31, {(S)-3-[6-(6-Methoxy-5-methyl-pyridin-3-yl)-5,6,7,8-tetrahydro-pyrido[4,3-d]pyrimidin-4-yloxy]-pyrrolidin-1-yl}-(5-methyl-isoxazol-4-yl)-methanone], for which the half-maximal inhibitory concentration (IC50) on PI3K alpha was determined as 3020 nM; at PI3K delta, 21 nM.
As for `COc1ncc(N2CCc3ncnc(O[C@H]4CCN(C(=O)c5conc5C)C4)c3C2)cc1C` [Example 32, {(S)-3-[6-(6-Methoxy-5-methyl-pyridin-3-yl)-5,6,7,8-tetrahydro-pyrido[4,3-d]pyrimidin-4-yloxy]-pyrrolidin-1-yl}-(3-methyl-isoxazol-4-yl)-methanone], the IC50 against PI3K alpha stood at 2040 nM; against PI3K delta, 23 nM.
Take `COc1ncc(N2CCc3ncnc(O[C@H]4CCN(C(=O)c5ccon5)C4)c3C2)cc1C` [Example 33, Isoxazol-3-yl-{(S)-3-[6-(6-Methoxy-5-methyl-pyridin-3-yl)-5,6,7,8-tetrahydro-pyrido[4,3-d]pyrimidin-4-yloxy]-pyrrolidin-1-yl}-methanone]: the concentration for half-maximal inhibition (IC50) on PI3K alpha is 1970 nM; against PI3K delta it was 18 nM.
`COc1ncc(N2CCc3ncnc(O[C@H]4CCN(C(=O)c5ccno5)C4)c3C2)cc1C` [Example 34, Isoxazol-5-yl-{(S)-3-[6-(6-Methoxy-5-methyl-pyridin-3-yl)-5,6,7,8-tetrahydro-pyrido[4,3-d]pyrimidin-4-yloxy]-pyrrolidin-1-yl}-methanone]: the 50% inhibitory concentration (IC50) at PI3K alpha came out at 1650 nM; at PI3K delta, 14 nM.
As to `COc1ncc(N2CCc3ncnc(O[C@H]4CCN(C(=O)c5cscn5)C4)c3C2)cc1C#N` [Example 35, 2-Methoxy-5-{4-[(S)-1-(thiazole-4-carbonyl)-pyrrolidin-3-yloxy]-7,8-dihydro-5H-pyrido[4,3-d]pyrimidin-6-yl}-nicotinonitrile], the results for the IC50 at PI3K alpha and on PI3K delta were 4230 nM and 49 nM, respectively.
On to `COc1ncc(N2CCc3ncnc(O[C@H]4CCN(C(=O)c5cnn(C)c5)C4)c3C2)cc1C#N` [Example 36, 2-Methoxy-5-{4-[(S)-1-(1-methyl-1H-pyrazole-4-carbonyl)-pyrrolidin-3-yloxy]-7,8-dihydro-5H-pyrido[4,3-d]pyrimidin-6-yl}-nicotinonitrile], for which the IC50 turned out to be 4100 nM against PI3K alpha and 25 nM at PI3K delta.
Take `COc1ncc(N2CCc3ncnc(O[C@H]4CCN(C(=O)c5ccn(C)n5)C4)c3C2)cc1C#N` [Example 37, 2-Methoxy-5-{4-[(S)-1-(1-methyl-1H-pyrazole-3-carbonyl)-pyrrolidin-3-yloxy]-7,8-dihydro-5H-pyrido[4,3-d]pyrimidin-6-yl}-nicotinonitrile]: the figures for the 50% inhibitory concentration (IC50) at PI3K alpha and against PI3K delta were 7020 nM and 31 nM, respectively.
With `COc1ncc(N2CCc3ncnc(O[C@H]4CCN(C(=O)C5CCOC(C)(C)C5)C4)c3C2)cc1C` (stereo partly drawn) [Example 38, (2,2-Dimethyl-tetrahydro-pyran-4yl)-{(S)-3-[6-(6-Methoxy-5-methyl-pyridin-3-yl)-5,6,7,8-tetrahydro-pyrido[4,3-d]pyrimidin-4-yloxy]-pyrrolidin-1-yl}-methanone], the half-maximal inhibitory concentration (IC50) worked out at 3310 nM on PI3K alpha and 16 nM at PI3K delta.
On the same counts, the results for `COc1ncc(N2CCc3ncnc(O[C@H]4CCN(C(=O)C5CCS(=O)(=O)CC5)C4)c3C2)cc1C(F)(F)F` [Example 39, (1,1-Dioxo-hexahydro-1lambda*6*-thiopyran-4-yl)-{(S)-3-[6-(6-methoxy-5-trifluoromethyl-pyridin-3-yl)-5,6,7,8-tetrahydro-pyrido[4,3-d]pyrimidin-4-yloxy]-pyrrolidin-1-yl}-methanone] are 434 nM and 9 nM.
For `COc1ncc(N2CCc3ncnc(O[C@H]4CCN(C(=O)c5oc(C)nc5C)C4)c3C2)cc1C(F)(F)F` [Example 40, (2,4-Dimethyl-oxazol-5-yl)-{(S)-3-[6-(6-methoxy-5-trifluoromethyl-pyridin-3-yl)-5,6,7,8-tetrahydro-pyrido[4,3-d]pyrimidin-4-yloxy]-pyrrolidin-1-yl}-methanone], the IC50 amounted to 260 nM against PI3K alpha and 6 nM at PI3K delta.
As to `COc1ncc(N2CCc3ncnc(O[C@H]4CCN(C(=O)c5cncs5)C4)c3C2)cc1C(F)(F)F` [Example 41, {(S)-3-[6-(6-Methoxy-5-trifluoromethyl-pyridin-3-yl)-5,6,7,8-tetrahydro-pyrido[4,3-d]pyrimidin-4-yloxy]-pyrrolidin-1-yl}-thiazol-5-yl-methanone], the IC50 on PI3K alpha is 515 nM; against PI3K delta, 14 nM.
Consider `COc1ncc(N2CCc3ncnc(O[C@H]4CCN(C(=O)c5ccnn5C)C4)c3C2)cc1C(F)(F)F` [Example 42, {(S)-3-[6-(6-Methoxy-5-trifluoromethyl-pyridin-3-yl)-5,6,7,8-tetrahydro-pyrido[4,3-d]pyrimidin-4-yloxy]-pyrrolidin-1-yl}-(2-methyl-2H-pyrazol-3-yl)-methanone], for which the results for the concentration for half-maximal inhibition (IC50) at PI3K alpha and against PI3K delta were 863 nM and 13 nM, respectively.
Regarding `COc1ncc(N2CCc3ncnc(O[C@H]4CCN(C(=O)C5CNC(=O)C5)C4)c3C2)cc1C(F)(F)F` (stereo partly drawn) [Example 43, 4-{(S)-3-[6-(6-Methoxy-5-trifluoromethyl-pyridin-3-yl)-5,6,7,8-tetrahydro-pyrido[4,3-d]pyrimidin-4-yloxy]-pyrrolidine-1-carbonyl}-pyrrolidin-2-one], the half-maximal inhibitory concentration (IC50) against PI3K alpha came out at 728 nM; on PI3K delta, 16 nM.
With `COc1ncc(N2CCc3ncnc(O[C@H]4CCN(C(=O)c5cccnc5)C4)c3C2)cc1C(F)(F)F` [Example 44, {(S)-3-[6-(6-Methoxy-5-trifluoromethyl-pyridin-3-yl)-5,6,7,8-tetrahydro-pyrido[4,3-d]pyrimidin-4-yloxy]-pyrrolidin-1-yl}-pyridin-3-yl-methanone], the half-maximal inhibitory concentration (IC50) against PI3K alpha worked out at 1190 nM; at PI3K delta, 16 nM.

The record behind these values is US8653092B2, “Tetrahydro-pyrido-pyrimidine derivatives” (Novartis AG, priority 2010, dated 2014).
